Numbers after ± are expanded uncertainties.
Tests used:
[1] = for surface tension liquid-gas: Maximal bubble pressure; for mass density: 100 kPa, Liquid, Vibrating tube method
[2] = xn = mol fraction of the nth substance listed; conditions: x2 = 0; for surface tension liquid-gas: Maximal bubble pressure; for mass density: 100 kPa, Liquid, Vibrating tube method

CC(C)O [propan-2-ol]
[1]
Conditions | mass density [kg/m3] | surface tension liquid-gas [mN/m]
288.15 K | 789.224 ± 1.3 | 20.6 ± 1.5
293.15 K | 785.088 ± 1.3 | 20.2 ± 1.5
298.15 K | 780.887 ± 1.3 | 19.8 ± 1.5
303.15 K | 776.617 ± 1.3 | 19.5 ± 1.5
308.15 K | 772.266 ± 1.3 | 19.1 ± 1.5
313.15 K | 767.829 ± 1.3 | 18.7 ± 1.5
318.15 K | 763.293 ± 1.3 | 18.4 ± 1.5

CCO [ethanol] + CCn1cc[n+](CCOC)c1.O=S(=O)([O-])C(F)(F)F
[2]
Conditions | mass density [kg/m3] | surface tension liquid-gas [mN/m]
288.15 K | 794.308 ± 1.3 | 21.9 ± 1.5
293.15 K | 790.041 ± 1.3 | 21.4 ± 1.5
298.15 K | 785.746 ± 1.3 | 20.9 ± 1.5
303.15 K | 781.43 ± 1.3 | 20.5 ± 1.5
308.15 K | 777.078 ± 1.3 | 20 ± 1.5
313.15 K | 772.688 ± 1.3 | 19.5 ± 1.5
318.15 K | 768.257 ± 1.3 | 19 ± 1.5

CC(C)O [propan-2-ol] + CCn1cc[n+](CCOC)c1.O=S(=O)([O-])C(F)(F)F
[2]
Conditions | mass density [kg/m3] | surface tension liquid-gas [mN/m]
288.15 K | 789.224 ± 1.3 | 20.6 ± 1.5
293.15 K | 785.088 ± 1.3 | 20.2 ± 1.5
298.15 K | 780.887 ± 1.3 | 19.8 ± 1.5
303.15 K | 776.617 ± 1.3 | 19.5 ± 1.5
308.15 K | 772.266 ± 1.3 | 19.1 ± 1.5
313.15 K | 767.829 ± 1.3 | 18.7 ± 1.5
318.15 K | 763.293 ± 1.3 | 18.4 ± 1.5

CCn1cc[n+](CCOC)c1.O=S(=O)([O-])C(F)(F)F
[1]
Conditions | mass density [kg/m3] | surface tension liquid-gas [mN/m]
288.15 K | 1348.94 ± 1.4 | 36.3 ± 1.5
293.15 K | 1344.66 ± 1.4 | 36.1 ± 1.5
298.15 K | 1340.41 ± 1.4 | 35.8 ± 1.5
303.15 K | 1336.17 ± 1.4 | 35.5 ± 1.5
308.15 K | 1331.96 ± 1.4 | 35.3 ± 1.5
313.15 K | 1327.77 ± 1.4 | 35.1 ± 1.5
318.15 K | 1323.6 ± 1.4 | 34.9 ± 1.5

CCCO [propan-1-ol]
[1]
Conditions | mass density [kg/m3] | surface tension liquid-gas [mN/m]
288.15 K | 807.507 ± 1.3 | 22.9 ± 1.5
293.15 K | 803.519 ± 1.3 | 22.5 ± 1.5
298.15 K | 799.514 ± 1.3 | 22.1 ± 1.5
303.15 K | 795.48 ± 1.3 | 21.8 ± 1.5
308.15 K | 791.416 ± 1.3 | 21.4 ± 1.5
313.15 K | 787.306 ± 1.3 | 21 ± 1.5
318.15 K | 783.149 ± 1.3 | 20.6 ± 1.5

CCO [ethanol]
[1]
Conditions | mass density [kg/m3] | surface tension liquid-gas [mN/m]
288.15 K | 794.308 ± 1.3 | 21.9 ± 1.5
293.15 K | 790.041 ± 1.3 | 21.4 ± 1.5
298.15 K | 785.746 ± 1.3 | 20.9 ± 1.5
303.15 K | 781.43 ± 1.3 | 20.5 ± 1.5
308.15 K | 777.078 ± 1.3 | 20 ± 1.5
313.15 K | 772.688 ± 1.3 | 19.5 ± 1.5
318.15 K | 768.257 ± 1.3 | 19 ± 1.5

CCCO [propan-1-ol] + CCn1cc[n+](CCOC)c1.O=S(=O)([O-])C(F)(F)F
[2]
Conditions | mass density [kg/m3] | surface tension liquid-gas [mN/m]
288.15 K | 807.507 ± 1.3 | 22.9 ± 1.5
293.15 K | 803.519 ± 1.3 | 22.5 ± 1.5
298.15 K | 799.514 ± 1.3 | 22.1 ± 1.5
303.15 K | 795.48 ± 1.3 | 21.8 ± 1.5
308.15 K | 791.416 ± 1.3 | 21.4 ± 1.5
313.15 K | 787.306 ± 1.3 | 21 ± 1.5
318.15 K | 783.149 ± 1.3 | 20.6 ± 1.5

Reference: the NIST ThermoML archive (doi:10.1016/j.tca.2019.178383)
